Experimental data: patent US20020091124A1, “2-acyl indole derivatives and their use as antitumor agents” (priority 2000, published 2002)
Where two headings read alike, the source gives them in different places.

Columns and labels:
rhabdomyosarcoma SXF 463 = assay: Human tumor xenograft SXF 463 in naked mice; type: in vivo; conditions: SXF 463, oral, 200 mg/kg, 2 weeks
Excerpt: (§1) For the in vivo experiments on naked mice, subcutaneously transplanted tumor fragments of the human melanoma MEXF 989 and/or the rhabdomyosarcoma SXF 463 were used. […]; Monday to Friday). […]. The cell lines included intestinal (2), stomach (1), lung (3), breast (2), melanoma (2), ovary (1), kidney (1) and uterus (1) tumor cell lines. […]. Emphasis is furthermore to be given to the oral bioavailability of the indole compounds according to the invention. […]

[1] = test system: human glioma cell line A-172; assay: XTT cytotoxicity test, A-172; conditions: A 172, 45 h, read-out: IC50 A-172
[2] = test system: human glioma cell line U118; assay: XTT cytotoxicity test, U118; conditions: 45 h, read-out: IC50 U118
RKO p21 cells = assay: RKOp21 model, XTT assay; type: cell-based; conditions: Homo sapiens; Table 2; read-out: RKP p21 induced IC50
Excerpt: The model used for examining the cell cycle-specific action was the RKOp21 cell system (M. Schmidt et al. Oncogene19(20):2423-9, 2000). RKO is a human colon carcinoma line in which the cell cycle inhibitor p21^wafl is expressed induced by the ecdysone expression system and leads to an arrest of the cell cycle specifically in G1 and G2. Nonspecific substances inhibit proliferation independently of whether the RKO cell is arrested in G1 or G2 or not. In contrast, cell cycle-specific substances, such as, for example, tubulin inhibitors, are only cytotoxic if the cells are not arrested and the cell cycle is in progress. […] This underlines the arrest of the cell cycle in […] already found in the FACS analyses, and a cell cycle-specific action of the compounds tested.
The assay is carried out in 96-well plates. […] Comparison of the activity on induced and non-induced cells allows conclusions to be drawn about the mechanism of action (cell cycle specificity) of the therapeutics. Non-induced [sic] cells are sown at a cell count which is about four times higher than that of non-induced cells since, compared to non-induced cells, there is no further division during the assay (2×10^4 cells/well induced, about 0.6×10^4 cells/well not induced). The controls are untreated cells (+/− induction). Induction is carried out using 3 μM of muristerone A. On day 1, the cells are plated (+/− muristerone A) and incubated at 37° C. for 24 h. On day 2, the test substance is added (control DMSO) and incubation at 37° C. is continued for another 48 h, after which a standard XTT assay is carried out.

[3] = Tolerability and oral administration in naked mice; type: in vivo
Excerpt: (§2) . The cell lines included intestinal (2), stomach (1), lung (3), breast (2), melanoma (2), ovary (1), kidney (1) and uterus (1) tumor cell lines. […]. Emphasis is furthermore to be given to the oral bioavailability of the indole compounds according to the invention. […]

[4] = test system: human cervical carcinoma cell line KB/HeLa; assay: XTT cytotoxicity test, KB/HeLa; type: cell-based
[5] = test system: 12 permanent human tumor cell lines; assay: Propidium iodide-based cytotoxicity assay; type: cell-based
Excerpt: as §2

rat glioma cell line C6 = assay: XTT cytotoxicity test, C6; conditions: 45 h, read-out: IC50 C6
[6] = test system: human glioma cell line U373; assay: XTT cytotoxicity test, U373; conditions: U373 MG, 45 h, read-out: IC50 U373
[7] = test system: human glioblastoma cell line U373; assay: Cell cycle analysis by FACS; conditions: U373, treated 24 h, FIG. 2
human melanoma MEXF 989 = assay: Human tumor xenograft MEXF 989 in naked mice; type: in vivo; conditions: MEXF 989, oral, 2 weeks, 5 administrations per week
Excerpt: as §1

For `COc1ccc2[nH]c(C(=O)c3ccccc3)cc2c1` [Example D-64131, 5-methoxy-1H-2-indolylphenyl-1-methanone], the “growth inhibition relative to the control” value (rhabdomyosarcoma SXF 463) was 83%, the IC50 [1] was 51 nM and the IC50 [2] was 24 nM. For the same compound, the IC50 (RKO p21 cells) was 15 nM, the oral bioavailability ([3]; concluded from oral activity) was “orally bioavailable” and the tolerated maximum dose ([3]; intraperitoneal injection, administered weekly) was 400 mg/kg. For the same compound, the tolerability ([3]; p.o. 100 and 200 mg/kg, Qdx5 for 2 weeks) was “tolerated very well”, the IC50 ([4]; 45 h, read-out: IC50 KB/HeLa) was 24 nM and the IC50 ([4]; read-out: Zytotoxizität KB/HeLa IC50) was 24 nM. For the same compound, the IC50 ([5]; 12 human tumor cell lines, read-out: average IC50 for all cell lines examined) was 340 nM, the IC50 ([5]; lung and stomach tumor cell lines, read-out: IC50) was roughly 4000 nM and the IC50 ([5]; melanoma, intestinal and kidney tumor cells, read-out: IC50) was 4 nM. For the same compound, the IC50 (rat glioma cell line C6) was 96.5 nM, the IC50 [6] was 22 nM and the “cells in the metaphase of mitotic division (M-phase)” value [7] was “concentration-dependent arrest of the cells in mitosis”. For the same compound, the growth inhibition (human melanoma MEXF 989; 100 mg/kg/day) was 66% and the growth inhibition (human melanoma MEXF 989; 200 mg/kg/day) was 81%.
